Consider 14 compounds from patent US20240024488A1, “COMPOUNDS AND USES THEREOF” (Foghorn Therapeutics Inc., priority 2020, published 2024).

SMILES strings stand for the structures.

One assay deals with T1, HiBit-BRM fusion protein (Homo sapiens, UniProt P51531).
T1 construct: expressed in transfected cells
Nature of the assay: HiBiT-BRM cell-based degradation assay (Nano-Glo HiBiT Lytic Detection, 24 h). The conditions noted are these: HeLa cell line expressing HiBiT-BRM; for DC50: read-out: BRM HiBit Degradation IC50. In outline: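 Stable HiBiT-BRM HeLa line; 24 h compound exposure, top final 30 μM, 3-fold, 10 pts in duplicate. Lytic HiBiT/LgBiT luminescence readout. % degradation vs DMSO (0%) and 2 μM known BRM/BRG1 degrader (100%).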
A general note: The HiBiT peptide binds its large partner to form an active luciferase.

Assay [1] deals with T2, HiBit-BRG1 fusion protein (Homo sapiens, UniProt P51532).
T2 construct: expressed in transfected cells
The assay is described as follows: HiBiT-BRG1 cell-based degradation assay (Nano-Glo HiBiT Lytic Detection, 24 h). The conditions noted are these: HeLa cell line expressing HiBit-BRG1 and LgBit; for Dmax: read-out: BRG1 HiBit Degradation Maximum (%); for DC50: read-out: BRMG1 HiBit Degradation IC50. In outline:
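Stable HeLa line co-expressing HiBit-BRG1 and LgBit, 5000 cells/well, treated 24 h in a tissue culture incubator. Lysed with Nano-Glo HiBiT lytic reagent, luminescence read. % degradation normalized to DMSO (high control) and 2 μM reference BRM/BRG1 degrader (low control).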

T1 sequence (P51531 whole entry, the tested form may be a part): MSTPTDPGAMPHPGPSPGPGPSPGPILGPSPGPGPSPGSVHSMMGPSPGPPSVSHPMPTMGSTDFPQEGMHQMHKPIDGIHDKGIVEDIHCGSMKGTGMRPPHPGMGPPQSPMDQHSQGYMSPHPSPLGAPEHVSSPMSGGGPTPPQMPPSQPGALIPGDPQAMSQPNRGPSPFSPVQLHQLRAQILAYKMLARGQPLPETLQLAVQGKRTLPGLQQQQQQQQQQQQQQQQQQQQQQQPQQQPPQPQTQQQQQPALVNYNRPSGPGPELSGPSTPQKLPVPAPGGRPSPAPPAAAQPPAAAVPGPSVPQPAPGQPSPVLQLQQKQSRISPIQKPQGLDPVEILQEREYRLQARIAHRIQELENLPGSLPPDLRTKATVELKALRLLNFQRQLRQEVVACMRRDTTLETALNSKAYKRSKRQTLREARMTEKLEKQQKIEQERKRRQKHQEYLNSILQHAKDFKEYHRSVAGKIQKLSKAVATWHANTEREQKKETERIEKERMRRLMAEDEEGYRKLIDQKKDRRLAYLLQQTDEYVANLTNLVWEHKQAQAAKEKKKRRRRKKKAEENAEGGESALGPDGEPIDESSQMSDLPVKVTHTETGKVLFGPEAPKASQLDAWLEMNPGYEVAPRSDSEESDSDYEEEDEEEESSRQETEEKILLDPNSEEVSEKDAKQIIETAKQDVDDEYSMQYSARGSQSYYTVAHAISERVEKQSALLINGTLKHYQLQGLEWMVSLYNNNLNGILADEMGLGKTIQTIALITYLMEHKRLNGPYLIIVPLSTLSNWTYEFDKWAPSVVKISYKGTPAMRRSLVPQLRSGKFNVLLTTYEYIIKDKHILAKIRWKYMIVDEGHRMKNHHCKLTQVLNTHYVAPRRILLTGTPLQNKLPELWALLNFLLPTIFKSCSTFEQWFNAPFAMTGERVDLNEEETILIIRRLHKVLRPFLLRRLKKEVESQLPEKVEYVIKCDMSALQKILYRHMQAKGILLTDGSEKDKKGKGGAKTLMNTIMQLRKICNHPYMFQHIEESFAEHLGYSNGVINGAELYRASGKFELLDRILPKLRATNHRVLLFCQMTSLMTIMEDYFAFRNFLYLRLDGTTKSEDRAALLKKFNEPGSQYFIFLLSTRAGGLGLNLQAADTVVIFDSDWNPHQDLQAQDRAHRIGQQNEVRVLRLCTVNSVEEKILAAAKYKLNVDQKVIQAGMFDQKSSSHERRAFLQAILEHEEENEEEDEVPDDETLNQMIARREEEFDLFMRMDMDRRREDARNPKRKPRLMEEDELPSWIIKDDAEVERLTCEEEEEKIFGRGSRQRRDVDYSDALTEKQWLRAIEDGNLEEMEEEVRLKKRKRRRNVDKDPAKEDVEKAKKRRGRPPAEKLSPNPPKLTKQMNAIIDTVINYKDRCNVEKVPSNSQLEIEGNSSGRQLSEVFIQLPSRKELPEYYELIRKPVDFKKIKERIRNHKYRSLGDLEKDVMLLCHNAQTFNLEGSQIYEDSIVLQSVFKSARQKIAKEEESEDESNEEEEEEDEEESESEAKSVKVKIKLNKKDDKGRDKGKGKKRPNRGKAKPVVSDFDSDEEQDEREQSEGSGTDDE
T2 sequence (P51532 whole entry, the tested form may be a part): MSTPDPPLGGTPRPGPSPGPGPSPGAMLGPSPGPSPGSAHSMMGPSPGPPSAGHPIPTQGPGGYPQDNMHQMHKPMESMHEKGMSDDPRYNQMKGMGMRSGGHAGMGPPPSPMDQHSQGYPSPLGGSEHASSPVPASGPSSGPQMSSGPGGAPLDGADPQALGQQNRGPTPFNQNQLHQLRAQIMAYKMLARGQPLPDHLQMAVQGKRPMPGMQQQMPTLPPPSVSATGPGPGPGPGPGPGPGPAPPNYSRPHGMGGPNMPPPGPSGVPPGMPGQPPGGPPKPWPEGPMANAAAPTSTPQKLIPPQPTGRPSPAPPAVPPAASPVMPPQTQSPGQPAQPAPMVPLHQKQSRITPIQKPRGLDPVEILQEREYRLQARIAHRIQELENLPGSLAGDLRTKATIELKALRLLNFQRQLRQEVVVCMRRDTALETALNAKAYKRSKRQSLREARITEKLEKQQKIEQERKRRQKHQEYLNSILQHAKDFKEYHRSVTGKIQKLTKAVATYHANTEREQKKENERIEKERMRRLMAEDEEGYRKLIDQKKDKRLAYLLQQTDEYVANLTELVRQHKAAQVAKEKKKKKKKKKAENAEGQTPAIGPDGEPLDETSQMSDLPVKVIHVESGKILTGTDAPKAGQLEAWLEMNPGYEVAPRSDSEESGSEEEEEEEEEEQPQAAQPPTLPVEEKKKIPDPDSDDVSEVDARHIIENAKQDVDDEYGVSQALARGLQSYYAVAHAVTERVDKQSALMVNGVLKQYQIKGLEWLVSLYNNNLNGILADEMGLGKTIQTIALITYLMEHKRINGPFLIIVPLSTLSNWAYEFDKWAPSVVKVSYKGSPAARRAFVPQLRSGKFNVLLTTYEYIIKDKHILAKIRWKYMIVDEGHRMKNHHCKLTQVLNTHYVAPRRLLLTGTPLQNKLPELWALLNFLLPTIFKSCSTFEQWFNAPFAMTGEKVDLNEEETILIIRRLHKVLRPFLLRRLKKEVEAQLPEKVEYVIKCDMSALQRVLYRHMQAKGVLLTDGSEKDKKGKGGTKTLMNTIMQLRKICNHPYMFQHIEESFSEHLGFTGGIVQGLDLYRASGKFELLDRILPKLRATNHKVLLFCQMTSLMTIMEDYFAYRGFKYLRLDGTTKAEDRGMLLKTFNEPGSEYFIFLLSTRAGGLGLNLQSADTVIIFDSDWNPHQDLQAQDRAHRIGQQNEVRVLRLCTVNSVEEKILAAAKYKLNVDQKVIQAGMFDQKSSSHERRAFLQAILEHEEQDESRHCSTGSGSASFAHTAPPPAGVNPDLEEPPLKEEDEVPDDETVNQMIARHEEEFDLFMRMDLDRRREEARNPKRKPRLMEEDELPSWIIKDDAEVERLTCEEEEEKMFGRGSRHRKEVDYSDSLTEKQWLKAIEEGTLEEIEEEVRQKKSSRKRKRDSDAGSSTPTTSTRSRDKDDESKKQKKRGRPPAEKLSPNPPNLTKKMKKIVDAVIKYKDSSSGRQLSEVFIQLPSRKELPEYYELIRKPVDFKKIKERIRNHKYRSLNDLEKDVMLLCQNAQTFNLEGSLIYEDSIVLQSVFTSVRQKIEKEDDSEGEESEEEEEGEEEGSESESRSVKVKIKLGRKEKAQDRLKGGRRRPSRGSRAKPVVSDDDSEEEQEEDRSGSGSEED

As for `Cc1ncsc1-c1ccc([C@H](C)NC(=O)[C@@H]2C[C@@H](O)CN2C(=O)[C@@H](c2cc(OCCN3[C@@H]4CC[C@H]3CN(c3cc5cc(-c6ccccc6O)nnc5[nH]3)C4)no2)C(C)C)cc1` (racemic) [Compound 245, (2S,4R)-4-hydroxy-1-((2R)-2-(3-(2-(3-(3-(2-hydroxyphenyl)-7H-pyrrolo[2,3-c]pyridazin-6-yl)-3,8-diazabicyclo[3.2.1]octan-8-yl)ethoxy)isoxazol-5-yl)-3-methylbutanoyl)-N-((S)-1-(4-(4-methylthiazol-5-yl)phenyl)ethyl)pyrrolidine-2-carboxamide], on HiBit-BRM fusion protein, the “BRM HiBit Degradation Maximum (%)” value is “A (“A” indicates maximum degradation ≥ 75%)” and the DC50 was greater than 0.01 µM. In assay [1], the Dmax was greater than 75% and the DC50 is greater than 0.1 µM.

Consider `CC(C)[C@H](C(=O)N1C[C@H](O)C[C@H]1C(=O)N[C@@H](C)c1ccc(-c2ccccc2F)cc1)c1cc(OCCN2CC(c3cc4cc(-c5ccccc5O)nnc4[nH]3)C2)no1` (single isomer, unassigned) [Compound 117], for which the “BRM HiBit Degradation Maximum (%)” value at HiBit-BRM fusion protein is “C (“C” indicates maximum degradation < 50%)”. For the same compound, the Dmax in assay [1] is less than 50%.

`Cc1ncsc1-c1ccc(CNC(=O)[C@@H]2C[C@@H](O)CN2C(=O)[C@@H](NC(=O)CCCCC(=O)N[C@H]2CCc3[nH]c4nnc(-c5ccccc5O)cc4c3C2)C(C)(C)C)cc1` (relative stereo) [Compound 175, N1-((S)-1-((2S,4R)-4-hydroxy-2-((4-(4-methylthiazol-5-yl)benzyl)carbamoyl)pyrrolidin-1-yl)-3,3-dimethyl-1-oxobutan-2-yl)-N6-((S)-3-(2-hydroxyphenyl)-6,7,8,9-tetrahydro-5H-pyridazino[3,4-b]indol-6-yl)adipamide]: on HiBit-BRM fusion protein, the “BRM HiBit Degradation Maximum (%)” value is given as “A (“A” indicates maximum degradation ≥ 75%)” and the DC50 was greater than 1 µM. The Dmax in assay [1] is less than 50%.

Regarding `Cc1ncsc1-c1ccc([C@H](C)NC(=O)[C@@H]2C[C@@H](O)CN2C(=O)[C@@H](c2cc(OCCN3CCC[C@@H](c4c[nH]c5nnc(-c6ccccc6O)cc45)C3)no2)C(C)C)cc1` (racemic) [Compound 283, (2S,4R)-4-hydroxy-1-((R)-2-(3-(2-((S)-3-(3-(2-hydroxyphenyl)-7H-pyrrolo[2,3-c]pyridazin-5-yl)piperidin-1-yl)ethoxy)isoxazol-5-yl)-3-methylbutanoyl)-N-((S)-1-(4-(4-methylthiazol-5-yl)phenyl)ethyl)pyrrolidine-2-carboxamide], at HiBit-BRM fusion protein, the “BRM HiBit Degradation Maximum (%)” value is given as “B (“B” indicates maximum degradation ≥ 50%)” and the DC50 is greater than 0.01 µM. Also, in assay [1], the Dmax was less than 50%.

Consider `Cc1ncsc1-c1ccc([C@H](C)NC(=O)[C@@H]2C[C@@H](O)CN2C(=O)[C@@H](NC(=O)CCCCCCCCCCCCCC(=O)N2CC(c3cc4cc(-c5ccccc5O)nnc4[nH]3)C2)C(C)(C)C)cc1` [Compound 11, (2S,4R)-4-hydroxy-1-((S)-2-(15-(3-(3-(2-hydroxyphenyl)-7H-pyrrolo[2,3-c]pyridazin-6-yl)azetidin-1-yl)-15-oxopentadecanamido)-3,3-dimethylbutanoyl)-N-((S)-1-(4-(4-methylthiazol-5-yl)phenyl)ethyl)pyrrolidine-2-carboxamide], for which, on HiBit-BRM fusion protein, the “BRM HiBit Degradation Maximum (%)” value is “B (“B” indicates maximum degradation ≥ 50%)” and the DC50 is greater than 0.1 µM. In addition, the Dmax in assay [1] is less than 50%.

With `Cc1ncsc1-c1ccc([C@H](C)NC(=O)[C@@H]2C[C@@H](O)CN2C(=O)[C@@H](c2cc(N3CCC(C(=O)N4CCc5[nH]c6nnc(-c7ccccc7O)cc6c5C4)CC3)no2)C(C)C)cc1` (racemic) [Compound 187, (2S,4R)-4-hydroxy-1-((R)-2-(3-(4-(3-(2-hydroxyphenyl)-6,7,8,9-tetrahydro-5H-pyrido[3′,4′:4,5]pyrrolo[2,3-c]pyridazine-6-carbonyl)piperidin-1-yl)isoxazol-5-yl)-3-methylbutanoyl)-N-((S)-1-(4-(4-methylthiazol-5-yl)phenyl)ethyl)pyrrolidine-2-carboxamide], on HiBit-BRM fusion protein, the “BRM HiBit Degradation Maximum (%)” value is listed as “A (“A” indicates maximum degradation ≥ 75%)” and the DC50 is greater than 0.01 µM. The Dmax in assay [1] was less than 50%.

On to `Cc1ncsc1-c1ccc([C@H](C)NC(=O)[C@@H]2C[C@@H](O)CN2C(=O)[C@@H](c2cc(OCC(=O)N[C@@H]3CCc4[nH]c5nnc(-c6ccccc6O)cc5c4C3)no2)C(C)C)cc1` [Compound 150, (2S,4R)-4-hydroxy-1-((R)-2-(3-(2-(((R)-3-(2-hydroxyphenyl)-6,7,8,9-tetrahydro-5H-pyridazino[3,4-b]indol-6-yl)amino)-2-oxoethoxy)isoxazol-5-yl)-3-methylbutanoyl)-N-((S)-1-(4-(4-methylthiazol-5-yl)phenyl)ethyl)pyrrolidine-2-carboxamide], for which, on HiBit-BRM fusion protein, the “BRM HiBit Degradation Maximum (%)” value is “A (“A” indicates maximum degradation ≥ 75%)” and the DC50 was greater than 0.01 µM. Besides, in assay [1], the Dmax was greater than 50% and the DC50 is greater than 0.1 µM.

As to `Cc1ncsc1-c1ccc([C@H](C)NC(=O)[C@@H]2C[C@@H](O)CN2C(=O)[C@@H](c2cc(N3CCC(C(=O)N[C@H]4CCc5[nH]c6nnc(-c7ccccc7O)cc6c5C4)CC3)no2)C(C)C)cc1` [Compound 144, 1-(5-((R)-1-((2S,4R)-4-hydroxy-2-(((S)-1-(4-(4-methylthiazol-5-yl)phenyl)ethyl)carbamoyl)pyrrolidin-1-yl)-3-methyl-1-oxobutan-2-yl)isoxazol-3-yl)-N-((S)-3-(2-hydroxyphenyl)-6,7,8,9-tetrahydro-5H-pyridazino[3,4-b]indol-6-yl)piperidine-4-carboxamide], at HiBit-BRM fusion protein, the “BRM HiBit Degradation Maximum (%)” value is on record as “A (“A” indicates maximum degradation ≥ 75%)” and the DC50 was greater than 0.01 µM. In assay [1], the Dmax was greater than 50% and the DC50 is greater than 0.1 µM.

As to `Cc1ncsc1-c1ccc([C@H](C)NC(=O)[C@@H]2C[C@@H](O)CN2C(=O)[C@@H](c2cc(OCCN3CCC[C@H](c4c[nH]c5nnc(-c6ccccc6O)cc45)C3)no2)C(C)C)cc1` (racemic) [Compound 291, (2S,4R)-4-hydroxy-1-((R)-2-(3-(2-((R)-3-(3-(2-hydroxyphenyl)-7H-pyrrolo[2,3-c]pyridazin-5-yl)piperidin-1-yl)ethoxy)isoxazol-5-yl)-3-methylbutanoyl)-N-((S)-1-(4-(4-methylthiazol-5-yl)phenyl)ethyl)pyrrolidine-2-carboxamide], at HiBit-BRM fusion protein, the “BRM HiBit Degradation Maximum (%)” value is on record as “B (“B” indicates maximum degradation ≥ 50%)” and the DC50 is greater than 0.01 µM. For the same compound, the Dmax in assay [1] is less than 50%.

`Cc1ncsc1-c1ccc([C@H](C)NC(=O)[C@@H]2C[C@@H](O)CN2C(=O)[C@@H](c2cc(N3CCC(CN[C@@H]4CCc5[nH]c6nnc(-c7ccccc7O)cc6c5C4)CC3)no2)C(C)C)cc1` (single isomer, unassigned) [Compound 173]: at HiBit-BRM fusion protein, the “BRM HiBit Degradation Maximum (%)” value is given as “A (“A” indicates maximum degradation ≥ 75%)” and the DC50 was greater than 0.1 µM. Besides, in assay [1], the Dmax is greater than 50% and the DC50 was greater than 1 µM.

Turning to `Cc1ncsc1-c1ccc([C@H](C)NC(=O)[C@@H]2C[C@@H](O)CN2C(=O)[C@@H](c2cc(OCCN3CCC(c4cc5cc(-c6ccccc6O)nnc5[nH]4)C3)no2)C(C)C)cc1` (mixture of isomers) [Compound 52, (2S,4R)-4-hydroxy-1-((2R)-2-(3-(2-(3-(3-(2-hydroxyphenyl)-7H-pyrrolo[2,3-c]pyridazin-6-yl)pyrrolidin-1-yl)ethoxy)isoxazol-5-yl)-3-methylbutanoyl)-N-((S)-1-(4-(4-methylthiazol-5-yl)phenyl)ethyl)pyrrolidine-2-carboxamide], at HiBit-BRM fusion protein, the “BRM HiBit Degradation Maximum (%)” value is recorded as “A (“A” indicates maximum degradation ≥ 75%)” and the DC50 is greater than 0.01 µM. Moreover, the Dmax in assay [1] was less than 50%.

Regarding `Cc1ncsc1-c1ccc([C@H](C)NC(=O)[C@@H]2C[C@@H](O)CN2C(=O)[C@@H](c2cc(OCCN3CCC[C@H]3c3c[nH]c4nnc(-c5ccccc5O)cc34)no2)C(C)C)cc1` (single isomer, unassigned) [Compound 227], the “BRM HiBit Degradation Maximum (%)” value on HiBit-BRM fusion protein is “C (“C” indicates maximum degradation < 50%)”. In assay [1], the Dmax is less than 50%.

Consider `Cc1ncsc1-c1ccc([C@H](C)NC(=O)[C@@H]2C[C@@H](O)CN2C(=O)[C@@H](c2cc(OCCN3CCC(c4cc5cc(-c6ccccc6O)nnc5[nH]4)CC3)no2)C(C)C)cc1` (racemic) [Compound 51, (2S,4R)-4-hydroxy-1-((R)-2-(3-(2-(4-(3-(2-hydroxyphenyl)-7H-pyrrolo[2,3-c]pyridazin-6-yl)piperidin-1-yl)ethoxy)isoxazol-5-yl)-3-methylbutanoyl)-N-((S)-1-(4-(4-methylthiazol-5-yl)phenyl)ethyl)pyrrolidine-2-carboxamide], for which, on HiBit-BRM fusion protein, the “BRM HiBit Degradation Maximum (%)” value was “A (“A” indicates maximum degradation ≥ 75%)” and the DC50 is greater than 0.01 µM. Further, in assay [1], the Dmax was greater than 50% and the DC50 is greater than 0.1 µM.

Consider `Cc1ncsc1-c1ccc([C@H](C)NC(=O)[C@@H]2C[C@@H](O)CN2C(=O)[C@@H](c2cc(OCCNC34CC(c5[nH]c6nnc(-c7ccccc7O)cc6c5C)(C3)C4)no2)C(C)C)cc1` (racemic) [Compound 220, (2S,4R)-4-hydroxy-1-((R)-2-(3-(2-((3-(3-(2-hydroxyphenyl)-5-methyl-7H-pyrrolo[2,3-c]pyridazin-6-yl)bicyclo[1.1.1]pentan-1-yl)amino)ethoxy)isoxazol-5-yl)-3-methylbutanoyl)-N-((S)-1-(4-(4-methylthiazol-5-yl)phenyl)ethyl)pyrrolidine-2-carboxamide], for which, on HiBit-BRM fusion protein, the “BRM HiBit Degradation Maximum (%)” value is on record as “A (“A” indicates maximum degradation ≥ 75%)” and the DC50 was less than 0.01 µM. In assay [1], the Dmax was greater than 75% and the DC50 is greater than 0.01 µM.
